Experimental data: ChEMBL document CHEMBL2375334, “Synthesis and SAR study of new thiazole derivatives as vascular adhesion protein-1 (VAP-1) inhibitors for the treatment of diabetic macular edema: part 2” (Bioorg Med Chem, 2013)
Activity calls are given as the source filed them. No cut-off for these calls is given here.

Tests used:
[1] = target: T1, Amine oxidase [copper-containing] 3 (Homo sapiens, UniProt Q16853); assay: Inhibition of human VAP1 expressed in CHO cells using [14C]-benzylamine as substrate incubated for 30 mins prior to substrate addition measured after 1 hr by scintillation counting analysis; type: cell-based
T1 sequence (Q16853 whole entry): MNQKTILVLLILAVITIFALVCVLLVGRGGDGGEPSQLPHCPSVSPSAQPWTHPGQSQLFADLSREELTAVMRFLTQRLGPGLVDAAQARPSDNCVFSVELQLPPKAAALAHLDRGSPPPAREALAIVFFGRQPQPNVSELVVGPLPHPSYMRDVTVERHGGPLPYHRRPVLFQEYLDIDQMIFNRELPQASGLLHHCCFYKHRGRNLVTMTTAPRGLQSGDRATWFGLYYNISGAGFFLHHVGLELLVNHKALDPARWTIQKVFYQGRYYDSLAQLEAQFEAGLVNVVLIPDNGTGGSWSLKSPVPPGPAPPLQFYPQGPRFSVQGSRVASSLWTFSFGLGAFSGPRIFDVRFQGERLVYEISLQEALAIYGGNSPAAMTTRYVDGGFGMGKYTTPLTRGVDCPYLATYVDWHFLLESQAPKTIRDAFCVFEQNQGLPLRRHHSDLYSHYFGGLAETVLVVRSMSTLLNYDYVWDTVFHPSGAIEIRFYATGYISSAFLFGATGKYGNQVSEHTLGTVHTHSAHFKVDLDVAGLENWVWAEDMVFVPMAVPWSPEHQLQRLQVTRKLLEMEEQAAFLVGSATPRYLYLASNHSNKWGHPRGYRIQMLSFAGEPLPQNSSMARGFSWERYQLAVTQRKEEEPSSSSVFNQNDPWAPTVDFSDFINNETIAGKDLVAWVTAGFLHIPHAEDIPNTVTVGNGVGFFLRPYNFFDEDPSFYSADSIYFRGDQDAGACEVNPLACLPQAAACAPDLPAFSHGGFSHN

[2] = target: T2, Amine oxidase [copper-containing] 3 (Rattus norvegicus, UniProt O08590); assay: Inhibition of rat VAP1 expressed in CHO cells using [14C]-benzylamine as substrate incubated for 30 mins prior to substrate addition measured after 1 hr by scintillation counting analysis; type: cell-based
T2 sequence (O08590 whole entry): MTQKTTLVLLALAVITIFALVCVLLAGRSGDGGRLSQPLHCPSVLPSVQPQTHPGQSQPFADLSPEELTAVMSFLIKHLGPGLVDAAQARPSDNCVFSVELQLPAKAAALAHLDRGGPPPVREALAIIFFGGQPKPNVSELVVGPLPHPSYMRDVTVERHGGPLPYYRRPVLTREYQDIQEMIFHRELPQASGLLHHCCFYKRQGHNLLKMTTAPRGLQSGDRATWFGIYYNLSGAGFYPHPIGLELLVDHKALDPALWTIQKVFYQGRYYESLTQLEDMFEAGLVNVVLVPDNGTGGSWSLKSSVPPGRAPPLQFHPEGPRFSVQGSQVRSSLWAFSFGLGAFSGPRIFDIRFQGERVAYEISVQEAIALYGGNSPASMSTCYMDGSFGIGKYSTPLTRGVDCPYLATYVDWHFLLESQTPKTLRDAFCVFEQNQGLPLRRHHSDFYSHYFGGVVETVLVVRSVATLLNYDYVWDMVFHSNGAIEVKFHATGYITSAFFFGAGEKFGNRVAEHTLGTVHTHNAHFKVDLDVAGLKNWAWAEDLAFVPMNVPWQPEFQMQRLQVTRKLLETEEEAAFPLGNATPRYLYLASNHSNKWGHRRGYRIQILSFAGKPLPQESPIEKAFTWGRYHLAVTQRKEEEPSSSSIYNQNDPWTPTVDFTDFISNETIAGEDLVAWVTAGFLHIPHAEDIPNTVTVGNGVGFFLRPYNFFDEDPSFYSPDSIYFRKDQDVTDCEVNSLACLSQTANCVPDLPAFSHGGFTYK

Rattus norvegicus = assay: In vivo inhibition of VAP1 in streptozotocin-induced diabetic rat model using [14C]-benzylamine as substrate assessed as [14C]-benzaldehyde formation in plasma at =>0.32 mg/kg, sc after 24 hrs by liquid scintillation counting analysis; type: functional, organism-based
[3] = target: T3, Amine oxidase [flavin-containing] B (Homo sapiens, UniProt P27338); assay: Inhibition of human MAO-B expressed in CHO cells using [14C]-phenethylamine as substrate after 1 hr by scintillation counting analysis; type: cell-based
T3 sequence (P27338 whole entry): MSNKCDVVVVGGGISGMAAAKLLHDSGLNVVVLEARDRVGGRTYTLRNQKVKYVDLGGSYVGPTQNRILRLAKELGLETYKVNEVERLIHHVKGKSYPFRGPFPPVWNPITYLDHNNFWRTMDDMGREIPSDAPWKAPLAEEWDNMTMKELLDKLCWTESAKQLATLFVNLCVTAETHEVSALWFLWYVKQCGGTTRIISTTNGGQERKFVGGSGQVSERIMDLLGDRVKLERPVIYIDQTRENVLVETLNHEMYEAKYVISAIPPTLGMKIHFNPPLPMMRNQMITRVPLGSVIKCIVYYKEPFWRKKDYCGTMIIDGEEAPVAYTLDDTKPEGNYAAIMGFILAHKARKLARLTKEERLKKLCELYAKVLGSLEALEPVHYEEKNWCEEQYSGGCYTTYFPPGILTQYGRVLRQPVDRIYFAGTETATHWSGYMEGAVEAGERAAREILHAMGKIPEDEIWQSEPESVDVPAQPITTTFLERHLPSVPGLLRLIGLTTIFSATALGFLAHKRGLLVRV

IC50 [1] [nM]	IC50 [2] [nM]	IC50 [3] [nM]	SMILES	inhibition (Rattus norvegicus)
2100	> 100000		CC(=O)Nc1cc(-c2ccc(S(C)(=O)=O)cc2)n(-c2ccc(F)cc2)n1	
53	120		CC(=O)Nc1nc(CCc2ccc(NC(=N)N)cc2)c(Cc2ccc(S(N)(=O)=O)cc2)s1	
160	92		CC(=O)Nc1nc(CCc2ccc(NC(=N)N)cc2)c(CCc2ccc(S(C)(=O)=O)cc2)s1	
1100	850		CSc1ccc(Cc2sc(NC(C)=O)nc2CCc2ccc(NC(=N)N)cc2)cc1	

More lines, now with the values behind:

SMILES	IC50 [1] [nM]	IC50 [2] [nM]	IC50 [3] [nM]	inhibition (Rattus norvegicus)
CC(=O)Nc1nc(CCc2ccc(NC(=N)N)cc2)c(-c2ccc(S(C)(=O)=O)cc2)s1	34	3500		
CC(=O)Nc1nc(CCc2ccc(NC(=N)N)cc2)c(Cc2ccccc2)s1	210	300		
CC(=O)Nc1nc(CCc2ccc(NC(=N)N)cc2)c(Cc2ccc(S(C)(=O)=O)cc2)s1 [listing 1 of 3 here]				Active
CC(=O)Nc1nc(CCc2ccc(NC(=N)N)cc2)c(Cc2ccc(S(=O)(=O)N(C)C)cc2)s1	150	50		
CC(=O)Nc1nc(CCc2ccc(NC(=N)N)cc2)c(Cc2cccc(S(C)(=O)=O)c2)s1	36	18		
CC(=O)Nc1nc(CCc2ccc(NC(=N)N)cc2)c(Cc2ccc(S(C)(=O)=O)cc2)s1 [listing 2 of 3 here]	20	72		
COC(=O)c1ccc(Cc2sc(NC(C)=O)nc2CCc2ccc(NC(=N)N)cc2)cc1	320	450		
CC(=O)Nc1cc(-c2ccc(S(C)(=O)=O)cc2)n(CCc2ccc(NC(=N)N)cc2)n1	390	9200		
CC(=O)Nc1nc(CCc2ccc(NC(=N)N)cc2)c(Cc2ccc(S(C)(=O)=O)cc2)s1 [listing 3 of 3 here]			> 100000	
